Legend:
Type in all cases: in vivo
[1] = tested on: barnyardgrass (Echinochloa crus-galli); test: Test G Pre-Emergence Protocol; conditions: Echinochloa crus-galli, pre-emergence, 312 h, evaluated after 13 days
How it was run: (§1)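 Glasshouse pre-emergence test: soil-sown seeds, sprayed after 1 d at 15.625, 62.5 or 250 g/ha. Conditions 24/16° C day/night, 14 h light, 65% humidity, watering twice daily. Rating 13 d post-spray (100 = total damage).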

corn (Zea mays) [2] = test: Test G Pre-Emergence Protocol; conditions: Zea mays, pre-emergence, 312 h, evaluated after 13 days
How it was run: as §1

[3] = tested on: giant foxtail (Setaria faberi); test: Test G Pre-Emergence Protocol; conditions: Setaria faberi, pre-emergence, 312 h, evaluated after 13 days
How it was run: as §1

[4] = tested on: ivy-leaved morning glory (Ipomoea hederacea); test: Test G Pre-Emergence Protocol; conditions: Ipomoea, pre-emergence, 312 h, evaluated after 13 days
How it was run: as §1

[5] = tested on: redroot pigweed (Amaranthus retroflexus); test: Test G Pre-Emergence Protocol; conditions: Amaranthus retroflexus, pre-emergence, 312 h, evaluated after 13 days
How it was run: as §1

[6] = tested on: velvetleaf (Abutilon theophrasti); test: Test G Pre-Emergence Protocol; conditions: Abutilon theophrasti, pre-emergence, 312 h, evaluated after 13 days
How it was run: as §1

[7] = tested on: barnyardgrass (Echinochloa crus-galli); test: Test G Post-Emergence Protocol; conditions: Echinochloa crus-galli, post-emergence, 312 h
How it was run: (§2)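 Scores run 0 (no damage) to 100 (total damage) and were taken 13 days after spraying. Plants had been raised in pots for 8 days under glasshouse control (24/16 °C, 14 h photoperiod, 65% humidity) and then treated at 15.625, 62.5 or 250 g/ha.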

corn (Zea mays) [8] = test: Test G Post-Emergence Protocol; conditions: Zea mays, post-emergence, 312 h
How it was run: as §2

[9] = tested on: giant foxtail (Setaria faberi); test: Test G Post-Emergence Protocol; conditions: Setaria faberi, post-emergence, 312 h
How it was run: as §2

[10] = tested on: ivy-leaved morning glory (Ipomoea hederacea); test: Test G Post-Emergence Protocol; conditions: Ipomoea, post-emergence, 312 h
How it was run: as §2

[11] = tested on: redroot pigweed (Amaranthus retroflexus); test: Test G Post-Emergence Protocol; conditions: Amaranthus retroflexus, post-emergence, 312 h
How it was run: as §2

[12] = tested on: velvetleaf (Abutilon theophrasti); test: Test G Post-Emergence Protocol; conditions: Abutilon theophrasti, post-emergence, 312 h
How it was run: as §2

Q: Which results are given for `CN1C[C@H](c2ccc(C(F)(F)F)cc2)[C@@H](C(=O)Nc2ccc(F)c(F)c2)C1=O` (racemic) [Compound 1412]?
A: pest or weed control at 15.625 g/ha ([1]; 15.625 g ai/ha, read-out: Barnyard grass damage rating (100=total damage to plant; 0=no damage to plant)): 0%; pest or weed control at 62.5 g/ha ([1]; 62.5 g ai/ha, 100=total damage to plant, 0=no damage to plant, read-out: plant damage rating, Barnyardgrass): 30%; pest or weed control at 250 g/ha ([1]; 250 g ai/ha, read-out: Barnyardgrass damage rating (100=total damage to plant; 0=no damage to plant)): 60%; plant injury at 15.625 g/ha (corn (Zea mays) [2]; 15.625 g ai/ha, read-out: Corn damage rating (100=total damage to plant; 0=no damage to plant)): 0%; plant injury at 62.5 g/ha (corn (Zea mays) [2]; 62.5 g ai/ha, 100=total damage to plant, 0=no damage to plant, read-out: plant damage rating, Corn): 10%; plant injury at 250 g/ha (corn (Zea mays) [2]; 250 g ai/ha, read-out: Corn damage rating (100=total damage to plant; 0=no damage to plant)): 10%; pest or weed control at 15.625 g/ha ([3]; 15.625 g ai/ha, read-out: Foxtail, Giant damage rating (100=total damage to plant; 0=no damage to plant)): 10%; pest or weed control at 62.5 g/ha ([3]; 62.5 g ai/ha, 100=total damage to plant, 0=no damage to plant, read-out: plant damage rating, Foxtail, Giant): 50%; pest or weed control at 250 g/ha ([3]; 250 g ai/ha, read-out: Foxtail, Giant damage rating (100=total damage to plant; 0=no damage to plant)): 80%; pest or weed control at 15.625 g/ha ([4]; 15.625 g ai/ha, read-out: Morning-glory, Ivy-leaved damage rating (100=total damage to plant; 0=no damage to plant)): 0%; pest or weed control at 62.5 g/ha ([4]; 62.5 g ai/ha, 100=total damage to plant, 0=no damage to plant, read-out: plant damage rating, Morningglory, Ivy-leaved): 0%; pest or weed control at 250 g/ha ([4]; 250 g ai/ha, read-out: Morningglory, Ivy-leaved damage rating (100=total damage to plant; 0=no damage to plant)): 0%; pest or weed control at 15.625 g/ha ([5]; 15.625 g ai/ha, read-out: Pigweed, Redroot damage rating (100=total damage to plant; 0=no damage to plant)): 20%; pest or weed control at 62.5 g/ha ([5]; 62.5 g ai/ha, 100=total damage to plant, 0=no damage to plant, read-out: plant damage rating, Pigweed, Redroot): 20%; pest or weed control at 250 g/ha ([5]; 250 g ai/ha, read-out: Pigweed, Redroot damage rating (100=total damage to plant; 0=no damage to plant)): 10%; pest or weed control at 15.625 g/ha ([6]; 15.625 g ai/ha, read-out: Velvetleaf damage rating (100=total damage to plant; 0=no damage to plant)): 0%; pest or weed control at 62.5 g/ha ([6]; 62.5 g ai/ha, 100=total damage to plant, 0=no damage to plant, read-out: plant damage rating, Velvetleaf): 0%; pest or weed control at 250 g/ha ([6]; 250 g ai/ha, read-out: Velvetleaf damage rating (100=total damage to plant; 0=no damage to plant)): 10%; pest or weed control at 15.625 g/ha ([7]; 15.625 g ai/ha, evaluated after 13 days (100=total damage to plant; 0=no damage to plant), read-out: Barnyardgrass damage rating): 0%; pest or weed control at 62.5 g/ha ([7]; 62.5 g ai/ha, evaluated after 13 days, read-out: Barnyardgrass damage rating (100=total damage to plant; 0=no damage to plant)): 50%; pest or weed control at 250 g/ha ([7]; 250 g ai/ha, evaluated after 13 days, read-out: damage to plant, Barnyardgrass (100=total damage to plant; 0=no damage to plant)): 60%; plant injury at 15.625 g/ha (corn (Zea mays) [8]; 15.625 g ai/ha, evaluated after 13 days (100=total damage to plant; 0=no damage to plant), read-out: Corn damage rating): 20%; plant injury at 62.5 g/ha (corn (Zea mays) [8]; 62.5 g ai/ha, evaluated after 13 days, read-out: Corn damage rating (100=total damage to plant; 0=no damage to plant)): 10%; plant injury at 250 g/ha (corn (Zea mays) [8]; 250 g ai/ha, evaluated after 13 days, read-out: damage to plant, Corn (100=total damage to plant; 0=no damage to plant)): 10%; pest or weed control at 15.625 g/ha ([9]; 15.625 g ai/ha, evaluated after 13 days (100=total damage to plant; 0=no damage to plant), read-out: Foxtail, Giant damage rating): 0%; pest or weed control at 62.5 g/ha ([9]; 62.5 g ai/ha, evaluated after 13 days, read-out: Foxtail, Giant damage rating (100=total damage to plant; 0=no damage to plant)): 60%; pest or weed control at 250 g/ha ([9]; 250 g ai/ha, evaluated after 13 days, read-out: damage to plant, Foxtail, Giant (100=total damage to plant; 0=no damage to plant)): 70%; pest or weed control at 15.625 g/ha ([10]; 15.625 g ai/ha, evaluated after 13 days (100=total damage to plant; 0=no damage to plant), read-out: Morningglory, Ivy-leaved damage rating): 0%; pest or weed control at 62.5 g/ha ([10]; 62.5 g ai/ha, evaluated after 13 days, read-out: Morningglory, Ivy-leaved damage rating (100=total damage to plant; 0=no damage to plant)): 0%; pest or weed control at 250 g/ha ([10]; 250 g ai/ha, evaluated after 13 days, read-out: damage to plant, Morningglory, Ivy-leaved (100=total damage to plant; 0=no damage to plant)): 20%; pest or weed control at 15.625 g/ha ([11]; 15.625 g ai/ha, evaluated after 13 days (100=total damage to plant; 0=no damage to plant), read-out: Pigweed, Redroot damage rating): 30%; pest or weed control at 62.5 g/ha ([11]; 62.5 g ai/ha, evaluated after 13 days, read-out: Pigweed, Redroot damage rating (100=total damage to plant; 0=no damage to plant)): 40%; pest or weed control at 250 g/ha ([11]; 250 g ai/ha, evaluated after 13 days, read-out: damage to plant, Pigweed, Redroot (100=total damage to plant; 0=no damage to plant)): 40%; pest or weed control at 15.625 g/ha ([12]; 15.625 g ai/ha, evaluated after 13 days (100=total damage to plant; 0=no damage to plant), read-out: Velvetleaf damage rating): 0%; pest or weed control at 62.5 g/ha ([12]; 62.5 g ai/ha, evaluated after 13 days, read-out: Velvetleaf damage rating (100=total damage to plant; 0=no damage to plant)): 40%; pest or weed control at 250 g/ha ([12]; 250 g ai/ha, evaluated after 13 days, read-out: damage to plant, Velvetleaf (100=total damage to plant; 0=no damage to plant)): 40%

Reference: patent US12077503B2, “Substituted cyclic amides and their use as herbicides” (FMC CORPORATION, priority 2015, dated 2024)
